Key:
[1] = molecular target: T1, Dopamine Transporter (DAT) (Homo sapiens, UniProt Q01959); assay: Dopamine transporter (DAT) radioligand binding; conditions: for Percentage Inhibition of Specific Binding, DAT: 10 μM, 0.15 nM [125I] RTI-55
T1 construct: expressed in transfected cells; host or cells: CHO cells
Protocol: (§1) (a) Adrenergic α2A Receptor: • Reference: S. Uhlen et al. J. Pharmacol. Exp. Ther., 271:1558-1565 (1994) • Source: Human recombinant insect Sf9 cells • Ligand: 1 nM [^3H] […] J. Pharmacol., 99:803-809, (1990) • Source: Wistar rat cerebral cortex • Ligand: 2 nM [3H]

Adrenergic α2B Receptor = molecular target: T2, Adrenergic α2B Receptor (Homo sapiens, UniProt P18089); assay: Adrenergic α2B receptor radioligand binding; conditions: 10 μM; 2.5 nM [3H] Rauwolscine
T2 construct: expressed in transfected cells; host or cells: CHO-K1 cells
T2 sequence (P18089 1-450): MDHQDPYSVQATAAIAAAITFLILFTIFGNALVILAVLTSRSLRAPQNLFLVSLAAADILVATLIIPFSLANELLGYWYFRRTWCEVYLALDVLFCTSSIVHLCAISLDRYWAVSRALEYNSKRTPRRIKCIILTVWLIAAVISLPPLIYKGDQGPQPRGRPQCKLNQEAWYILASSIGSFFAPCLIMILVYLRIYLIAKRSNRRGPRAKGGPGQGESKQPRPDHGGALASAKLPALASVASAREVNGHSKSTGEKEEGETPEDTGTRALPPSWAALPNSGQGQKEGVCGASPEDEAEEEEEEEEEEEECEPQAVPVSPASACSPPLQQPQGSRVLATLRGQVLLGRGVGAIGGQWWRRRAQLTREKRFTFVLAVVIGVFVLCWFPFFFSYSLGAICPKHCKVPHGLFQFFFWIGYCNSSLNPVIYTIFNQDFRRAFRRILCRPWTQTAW
Protocol: as §1

[2] = test system: Imidazoline I2 (Central) Receptor; assay: Imidazoline I2 (central) receptor radioligand binding; set-up: species or system Wistar rat; conditions: 10 μM; 2 nM [3H] Idazoxan
Protocol: as §1

VMAT1 = molecular target: T3, VMAT1 (Rattus norvegicus, UniProt Q01818); assay: VMAT1 functional assay: [3H] dopamine uptake, rat adrenal chromaffin cell vesicles in presence of 10 μM tetrabenazine; type: biochemical; conditions: for IC50: in the presence of 10 μM Tetrabenazine, read-out: IC50, inhibition of [3H] dopamine uptake
T3 construct: The vesicular fraction was isolated in an identical fashion to that described for the brain preparation; from tissue; host or cells: SD rat adrenal medulla chromaffin cells, vesicular fraction
T3 sequence (Q01818 1-521): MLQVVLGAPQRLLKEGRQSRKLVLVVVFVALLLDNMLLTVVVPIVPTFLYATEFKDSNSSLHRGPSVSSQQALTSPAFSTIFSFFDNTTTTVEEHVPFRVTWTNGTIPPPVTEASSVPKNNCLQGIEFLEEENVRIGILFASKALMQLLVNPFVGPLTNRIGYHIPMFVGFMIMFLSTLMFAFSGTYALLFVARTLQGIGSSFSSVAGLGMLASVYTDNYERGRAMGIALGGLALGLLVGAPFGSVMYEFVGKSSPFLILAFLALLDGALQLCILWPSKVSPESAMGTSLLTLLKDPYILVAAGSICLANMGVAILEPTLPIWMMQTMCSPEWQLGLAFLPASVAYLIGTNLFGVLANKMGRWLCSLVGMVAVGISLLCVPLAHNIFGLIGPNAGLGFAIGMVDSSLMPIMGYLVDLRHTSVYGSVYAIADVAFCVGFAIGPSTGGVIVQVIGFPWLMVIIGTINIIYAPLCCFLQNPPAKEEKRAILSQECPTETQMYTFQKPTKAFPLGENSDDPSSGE
Protocol: Thus, adrenal glands were dissected in ice cold PBS, the capsule and cortex of the glands removed and the remaining medullae were minced. After multiple washes with PBS, the tissue was incubated with Ca2+-free collagenase IA solution (250 U/ml) for 30 minutes at 30° C. with gentle stirring. The digested tissue was rinsed three times and the dissociated cells were centrifuged at 3000 rpm to form a pellet, which was resuspended in PBS. The vesicular fraction was isolated in an identical fashion to that described for the brain preparation.
100 μl (approx. 2.5 μg protein) of synaptic vesicles were preincubated with increasing concentrations of test compound (prepared as previously described for binding assay) for 30 minutes (concentration range 10^−9 M-10^−4 M). The assay was performed for 3 minutes at 30° C. in the assay buffer (25 mM HEPES, 100 mM potassium tartrate, 1.7 mM ascorbic acid, 0.05 mM EGTA, 0.1 mM EDTA, 2 mM ATP-Mg^2+, pH 7.5), in the presence of [^3H] dopamine (30 nM final concentration). [^3H] dopamine uptake was measured in the presence of 10 μM tetrabenazine (selectively blocks VMAT2 at this concentration). Non-specific uptake was determined by measuring vesicular [^3H] dopamine uptake at 4° C. The reaction was then terminated by addition of ice-cold buffer assay buffer pH 7.5, containing 2 mM MgSO4 instead of 2 mM ATP-Mg^2+, and rapid filtration achieved through Whatman filters soaked in 0.5% polyethyleneimine. The filters were washed three times with cold buffer using a Brandel Harvester and the radioactivity trapped on the filters was counted using a liquid scintillation counter.

T1 sequence (Q01959 whole entry): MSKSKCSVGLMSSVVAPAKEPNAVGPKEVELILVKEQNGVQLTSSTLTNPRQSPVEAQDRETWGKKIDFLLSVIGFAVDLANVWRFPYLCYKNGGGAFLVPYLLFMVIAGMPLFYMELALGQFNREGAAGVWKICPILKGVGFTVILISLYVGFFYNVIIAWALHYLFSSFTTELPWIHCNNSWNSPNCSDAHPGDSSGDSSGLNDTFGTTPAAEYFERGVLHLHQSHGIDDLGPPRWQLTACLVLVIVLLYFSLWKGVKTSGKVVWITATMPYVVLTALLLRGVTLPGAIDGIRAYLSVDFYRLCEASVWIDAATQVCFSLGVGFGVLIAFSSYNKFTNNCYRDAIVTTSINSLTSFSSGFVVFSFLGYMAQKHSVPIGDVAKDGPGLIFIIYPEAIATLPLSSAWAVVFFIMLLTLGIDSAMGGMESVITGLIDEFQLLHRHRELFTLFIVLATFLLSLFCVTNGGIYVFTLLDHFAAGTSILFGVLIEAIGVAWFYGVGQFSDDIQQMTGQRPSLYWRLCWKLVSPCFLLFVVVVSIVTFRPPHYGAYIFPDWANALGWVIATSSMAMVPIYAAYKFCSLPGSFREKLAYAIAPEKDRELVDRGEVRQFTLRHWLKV

Structure (SMILES)	DAT binding activity (in words) [1]	Percentage Inhibition of Specific Binding, DAT [1]	Percentage Inhibition of Specific Binding, α2B Receptor (Adrenergic α2B Receptor)	Percentage Inhibition of Specific Binding, I2 Receptor [2]	affinity for VMAT1 (in words) (VMAT1)	IC50 (VMAT1)
COc1cc2c(cc1OC)[C@H]1C[C@@H](O)[C@@H](CC(C)C)CN1CC2 (single isomer, unassigned) [Isomer C, 3,11b-cis-dihydrotetrabenazine]	lack Dopamine Transporter (DAT) binding activity	−2%	−7%	0%	low affinity for VMAT-1	> 10 µM
COc1cc2c(cc1OC)[C@H]1C[C@H](O)[C@@H](CC(C)C)CN1CC2 (single isomer, unassigned) [Isomer B, 3,11b-cis-dihydrotetrabenazine]	lack Dopamine Transporter (DAT) binding activity	4%	14%	8%	low affinity for VMAT-1	> 10 µM

From patent US20080108645A1, “Dihydrotetrabenazines And Pharmaceutical Compositions Containing Them” (CAMBRIDGE LABORATORIES, (IRELAND), LTD., priority 2004, published 2008)
